Results from ChEMBL document CHEMBL1155554, “(2R,3R,7Z)-2-Aminotetradec-7-ene-1,3-diol, a new amino alcohol from the caribbean sponge Haliclona vansoesti” (J Nat Prod, 2000).
Values after ≈ are worked out from the molar mass of the structure shown.

Experiment: Toxicity in brine shrimp
Assay type: organism-based
Settings: artemia, in vivo; read-out: LD50 (the source's name)

Question: Which LC50 does the source give for `CCCCCC/C=C\CCC[C@@H](O)[C@H](N)CO` here?
Answer: 9 µg/mL (≈ 37 µM)
